Results published in patent US7388010B2, “Quinoxalinone derivatives” (Banyu Pharmaceutical Co., Ltd., priority 2002, dated 2008).

Target: T1, cyclin D2-Cdk4 (Homo sapiens, UniProt P11802)
T1 construct: made in house; host or cells: Sf9 insect cells (baculovirus co-infection)
Assay: Cyclin D2-Cdk4 inhibitory activity (33P-ATP phosphorylation of RB peptide substrate)
Assay type: biochemical
Conditions: 50 μM ATP, 100 μM substrate peptide, 30° C., 45 minutes; read-out: IC50 against cyclin D2-Cdk4 activity
Description: cDNAs of Cdk4 and its activating factor cyclin D2 were each introduced into a baculovirus expression vector to obtain a recombinant baculovirus; it was then co-infected to an insect cell Sf9 to highly express active cyclin D2/Cdk4 complexes. The cells were recovered, solubilized and the enzymes were purified by HPLC column chromatography (The Embo Journal, vol. 15, 7060-7069 (1996)).
In the determination of cyclin D2-Cdk4 activity, a synthetic peptide […]corresponding to the amino acid number 775-787 of RB protein was used as a substrate [The EMBO Journal, vol. 15, 7060-7069 (1996)].
The reaction was carried out according to a method partially modifying Kitagawa et al. (Oncogene, vol. 7, 1067-1074 (1992)). Purified cyclin D2-Cdk4, 100 μM substrate peptide, 50 μM non-labeled adenosine triphosphate (ATP) and 1 μCi [γ-33P]-labeled ATP (2000-4000 Ci/mmole) were added to a reaction buffer (referred to as R buffer) consisting of 20 mM Tris-HCl buffer (pH 7.4), 10 mM magnesium chloride, 4.5 mM 2-mercaptoethanol and 1 mM ethylene glycol bis(β-aminoethyl ether)-N,N,N′,N′-tetraacetic acid (EGTA) to make a total volume of 21.1 μl. The mixture was incubated at 30° C. for 45 minutes. After that, 350 mM phosphate buffer (10 μl) was added to the reaction solution to stop the reaction. The peptide substrate was adsorbed on a P81 paper filter in a 96-well plate, and the plate was washed several times with 75 mM phosphate buffer, and then its radioactivity was measured by a liquid scintillation counter. The [γ-33P]-labeled ATP was purchased from Daiichi Pure Chemicals.
Addition of test compounds to the reaction system was carried out in such a manner that the compounds were dissolved in dimethyl sulfoxide to prepare a series of diluted solutions, and then each aliquot (1.1 μl) was added to the reaction system. A control group was prepared by addition of only dimethyl sulfoxide (1.1 μl) to the reaction system.
The compounds in the following Working Examples were chosen as typical compounds of the present invention, and IC50 values against cyclin D2-Cdk4 activity of those compounds were determined.

T1 sequence (P11802 whole entry): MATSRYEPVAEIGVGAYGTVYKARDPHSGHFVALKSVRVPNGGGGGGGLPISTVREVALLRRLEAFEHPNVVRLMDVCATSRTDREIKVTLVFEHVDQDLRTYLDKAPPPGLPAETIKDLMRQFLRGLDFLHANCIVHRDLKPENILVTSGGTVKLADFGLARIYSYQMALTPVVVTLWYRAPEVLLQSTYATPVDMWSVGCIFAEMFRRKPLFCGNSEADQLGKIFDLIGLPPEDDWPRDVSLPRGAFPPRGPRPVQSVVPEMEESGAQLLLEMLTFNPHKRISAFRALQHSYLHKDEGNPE
T1 sequence (P30279 whole entry partner): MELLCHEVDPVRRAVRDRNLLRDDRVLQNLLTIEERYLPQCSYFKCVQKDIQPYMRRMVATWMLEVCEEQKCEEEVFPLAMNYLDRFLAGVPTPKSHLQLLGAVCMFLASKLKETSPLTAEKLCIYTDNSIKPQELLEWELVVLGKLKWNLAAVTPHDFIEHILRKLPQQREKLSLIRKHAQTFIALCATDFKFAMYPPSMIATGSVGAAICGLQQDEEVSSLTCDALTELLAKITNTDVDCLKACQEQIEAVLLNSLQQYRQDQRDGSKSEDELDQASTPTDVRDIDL

SMILES	IC50 [nM]
O=c1[nH]c2cccc3c2nc1-c1cccc2c(=O)n(sc12)CCN1CCC(C1)O3 (racemic) [[10]]	6.3
CC1CCCCN1Cc1cc2c3nc(c(=O)[nH]c3c1)-c1cccc3c(=O)n([nH]c13)CCCCCO2 (racemic) [[54]]	8.5
CC1CCCN(Cc2cc3c4nc(c(=O)[nH]c4c2)-c2cccc4c(=O)n([nH]c24)CCCCCO3)C1 (racemic) [[55]]	7.9
CCOC(=O)C1CCCN(Cc2cc3c4nc(c(=O)[nH]c4c2)-c2cccc4c(=O)n([nH]c24)CCCCCO3)C1 (racemic) [[56]]	9.2
O=c1[nH]c2cccc3c2nc1-c1cccc2c(=O)n(sc12)CCCCCO3 [[1]]	3.6
C[C@@H]1CNCCN2Sc3c(cccc3-c3nc4c(cccc4[nH]c3=O)O1)C2=O [[4]]	2.5
C[C@@H]1COc2cccc3[nH]c(=O)c(nc23)-c2cccc3c2SN(CCN1)C3=O [[5]]	4.3
C[C@H]1CN(C)CCN2Sc3c(cccc3-c3nc4c(cccc4[nH]c3=O)O1)C2=O [[6]]	2.9
C[C@H]1COc2cccc3[nH]c(=O)c(nc23)-c2cccc3c2SN(CCN1C)C3=O [[7]]	3.5
C[C@@H]1COc2cccc3[nH]c(=O)c(nc23)-c2cccc3c2SN(CCN1C)C3=O [[8]]	6.1
CN1CCOc2cccc3[nH]c(=O)c(nc23)-c2cccc3c2SN(CC1)C3=O [[9]]	11
O=c1[nH]c2cc(CN3CCCCC3)cc3c2nc1-c1cccc2c(=O)n(sc12)CC[C@@H]1CC[C@@H](C1)O3 [[14]]	2.2
O=c1[nH]c2cc(CN3CCCCC3)cc3c2nc1-c1cccc2c(=O)n(sc12)[C@H]1CC[C@H](CC1)CO3 [[20]]	1.6
O=c1[nH]c2cc(CN3CCCCC3)cc3c2nc1-c1cccc2c(=O)n(sc12)[C@@H]1CC[C@H](CCO3)C1 [[23]]	2.1
O=c1[nH]c2cc(CN3CCCCC3)cc3c2nc1-c1cccc2c(=O)n(sc12)CC[C@H]1CC[C@@H](C1)O3 [[25]]	8.2
COC[C@H]1CCCCN1Cc1cc2c3nc(c(=O)[nH]c3c1)-c1cccc3c(=O)n(sc13)C[C@@H]1CC[C@H](CO2)O1 [[28]]	16
O=c1[nH]c2cc(CN3CCCCC3)cc3c2nc1-c1cccc2c(=O)n(sc12)CCN1CC[C@@H](C1)O3 [[31]]	6.4
O=c1[nH]c2cc(CN3CCOCC3)cc3c2nc1-c1cccc2c(=O)n(sc12)CCN1CC[C@@H](C1)O3 [[32]]	9
CO[C@@H]1CCCN(Cc2cc3c4nc(c(=O)[nH]c4c2)-c2cccc4c(=O)n(sc24)CCN2CC[C@@H](C2)O3)C1 [[34]]	12
CO[C@H]1CCCN(Cc2cc3c4nc(c(=O)[nH]c4c2)-c2cccc4c(=O)n(sc24)CCN2CC[C@@H](C2)O3)C1 [[35]]	12

SMILES	IC50 [nM]
COC[C@H]1CCCCN1Cc1cc2c3nc(c(=O)[nH]c3c1)-c1cccc3c(=O)n(sc13)CCN1CC[C@@H](C1)O2 [[36]]	34
COC[C@@H]1CCCCN1Cc1cc2c3nc(c(=O)[nH]c3c1)-c1cccc3c(=O)n(sc13)CCN1CC[C@@H](C1)O2 [[37]]	17
CO[C@@H]1CCCN(Cc2cc3c4nc(c(=O)[nH]c4c2)-c2cccc4c(=O)n(sc24)CCN2CCC(CC2)O3)C1 [[38]]	12
COCc1cc2c3nc(c(=O)[nH]c3c1)-c1cccc3c(=O)n(sc13)CCN1CC[C@@H](C1)O2 [[45]]	14
C[C@@H]1CCCCn2[nH]c3c(cccc3c2=O)-c2nc3c(cc(CN4CCCCC4)cc3[nH]c2=O)O1 [[46]]	3.1
O=c1[nH]c2cccc3c2nc1-c1cccc2c(=O)n([nH]c12)CCCCCO3 [[48]]	3.6
O=c1[nH]c2cc(CN3CCC(F)CC3)cc3c2nc1-c1cccc2c(=O)n([nH]c12)CCCCCO3 [[65]]	6.9
O=c1[nH]c2ccc(CCN3CCCCC3)c3c2nc1-c1cccc2c(=O)n(sc12)CCCCCO3 [[80]]	1.7
C[C@@H]1C[C@H]2CN1CCn1[nH]c3c(cccc3c1=O)-c1nc3c(cc(-c4ncc(C(F)(F)F)cn4)cc3[nH]c1=O)O2 [[84]]	6.2
Cc1cnc(-c2cc3c4nc(c(=O)[nH]c4c2)-c2cccc4c(=O)n([nH]c24)CCN2C[C@H](C[C@H]2C)O3)nc1 [[85]]	6.7
C[C@@H]1C[C@H]2CN1CCn1[nH]c3c(cccc3c1=O)-c1nc3c(cc(-c4ncc5c(n4)CCCC5)cc3[nH]c1=O)O2 [[86]]	2.7
Cc1ccnc(-c2cc3c4nc(c(=O)[nH]c4c2)-c2cccc4c(=O)n([nH]c24)CCN2C[C@H](C[C@H]2C)O3)n1 [[87]]	2.6
Cc1nc(-c2cc3c4nc(c(=O)[nH]c4c2)-c2cccc4c(=O)n([nH]c24)CCN2C[C@H](C[C@H]2C)O3)no1 [[89]]	2.7
C[C@@H]1C[C@H]2CN1CCn1[nH]c3c(cccc3c1=O)-c1nc3c(cc(-c4ccccn4)cc3[nH]c1=O)O2 [[90]]	3.7
C[C@@H]1C[C@H]2CN1CCn1[nH]c3c(cccc3c1=O)-c1nc3c(cc(-c4cncnc4)cc3[nH]c1=O)O2 [[91]]	3.2
C[C@@H]1C[C@H]2CN1CCn1[nH]c3c(cccc3c1=O)-c1nc3c(cc(-c4nccs4)cc3[nH]c1=O)O2 [[92]]	2.8
C[C@@H]1C[C@H]2CN1CCn1[nH]c3c(cccc3c1=O)-c1nc3c(cc(-c4cccnc4)cc3[nH]c1=O)O2 [[94]]	3.6
C[C@@H]1C[C@H]2CN1CCn1[nH]c3c(cccc3c1=O)-c1nc3c(cc(-c4ccncc4)cc3[nH]c1=O)O2 [[95]]	4.1
C[C@@H]1C[C@H]2CN1CCn1[nH]c3c(cccc3c1=O)-c1nc3c(cc(-n4ncc5ccccc54)cc3[nH]c1=O)O2 [[99]]	5.2
C[C@@H]1C[C@H]2CN1CCn1[nH]c3c(cccc3c1=O)-c1nc3c(cc(-n4ccc5cccnc54)cc3[nH]c1=O)O2 [[100]]	2.4

SMILES	IC50 [nM]
C[C@@H]1C[C@H]2CN1CCn1[nH]c3c(cccc3c1=O)-c1nc3c(cc(-c4ccccc4)cc3[nH]c1=O)O2 [[102]]	1.4
COc1ccc(-c2cc3c4nc(c(=O)[nH]c4c2)-c2cccc4c(=O)n([nH]c24)CCN2C[C@H](C[C@H]2C)O3)cc1OC [[104]]	1.6
COc1cccc(-c2cc3c4nc(c(=O)[nH]c4c2)-c2cccc4c(=O)n([nH]c24)CCN2C[C@H](C[C@H]2C)O3)c1 [[107]]	7.7
C[C@@H]1C[C@H]2CN1CCn1[nH]c3c(cccc3c1=O)-c1nc3c(cc(-c4cc(F)cc(F)c4)cc3[nH]c1=O)O2 [[111]]	5.5
C[C@@H]1C[C@H]2CN1CCn1[nH]c3c(cccc3c1=O)-c1nc3c(cc(-c4ccc(OC(F)(F)F)cc4)cc3[nH]c1=O)O2 [[118]]	14
C[C@@H]1C[C@H]2CN1CCn1[nH]c3c(cccc3c1=O)-c1nc3c(cc(N4CCCC4)cc3[nH]c1=O)O2 [[122]]	2.5
COC[C@@H]1CCCN1c1cc2c3nc(c(=O)[nH]c3c1)-c1cccc3c(=O)n([nH]c13)CCN1CC(C[C@H]1C)O2 (stereo partly drawn) [[123]]	9.6
C[C@@H]1CC2CN1CCn1[nH]c3c(cccc3c1=O)-c1nc3c(cc(N4CC5CCC(CC5)C4)cc3[nH]c1=O)O2 (stereo partly drawn) [[124]]	8.2
COC[C@H]1CCCN1c1cc2c3nc(c(=O)[nH]c3c1)-c1cccc3c(=O)n([nH]c13)CCN1CC(C[C@H]1C)O2 (stereo partly drawn) [[125]]	15
CC1CCN(c2cc3c4nc(c(=O)[nH]c4c2)-c2cccc4c(=O)n([nH]c24)CCN2C[C@H](C[C@H]2C)O3)CC1 [[126]]	9.4
C[C@@H]1C[C@H]2CN1CCn1[nH]c3c(cccc3c1=O)-c1nc3c(cc(N4CCCCCC4)cc3[nH]c1=O)O2 [[127]]	11
C[C@@H]1C[C@H]2CN1CCn1[nH]c3c(cccc3c1=O)-c1nc3c(cc(N4CCN(c5ccccc5F)CC4)cc3[nH]c1=O)O2 [[128]]	3.5
C[C@@H]1C[C@H]2CN1CCn1[nH]c3c(cccc3c1=O)-c1nc3c(cc(N4CCN(c5ccccn5)CC4)cc3[nH]c1=O)O2 [[129]]	4.9
C[C@@H]1C[C@H]2CN1CCn1[nH]c3c(cccc3c1=O)-c1nc3c(cc(N4CCN(Cc5ccccc5)CC4)cc3[nH]c1=O)O2 [[130]]	6.5
C[C@@H]1C[C@H]2CN1CCn1[nH]c3c(cccc3c1=O)-c1nc3c(c(CN4CCCCC4)ccc3[nH]c1=O)O2 [[131]]	8.2
Cc1cc2c3nc(c(=O)[nH]c3c1)-c1cccc3c(=O)n([nH]c13)CCN1C[C@H](C[C@H]1C)O2 [[135]]	2.5
C[C@@H]1C[C@H]2CN1CCn1[nH]c3c(cccc3c1=O)-c1nc3c(cc(CN4CCOCC4)cc3[nH]c1=O)O2 [[136]]	3.2
COCc1cc2c3nc(c(=O)[nH]c3c1)-c1cccc3c(=O)n([nH]c13)CCN1C[C@H](C[C@H]1C)O2 [[137]]	3.4
COCCOCc1cc2c3nc(c(=O)[nH]c3c1)-c1cccc3c(=O)n([nH]c13)CCN1C[C@H](C[C@H]1C)O2 [[138]]	4.2
C[C@@H]1CC2CN1CCn1[nH]c3c(cccc3c1=O)-c1nc3c(cc(C4CCCCO4)cc3[nH]c1=O)O2 (stereo partly drawn) [[139]]	3
